Laboratory results from paper PMC13042944, “Substituent‐Based Modulation of Self‐Assembly and Immunogenicity of Amphipathic Peptides” (Advanced Science, 2026).
Like-named read-outs stand apart in the source and are kept apart here.

B1: KFE5 (Ac-FKFEF-Am) (peptide)
peptide: Ac-FKFEF-NH2
notes: designed amphipathic pentapeptide, truncated variant of KFE8; also called KFE5(H); source: synthetic peptide (Fmoc-SPPS on Rink Amide resin, HPLC purified)
B2: KFE8 (Ac-FKFEFKFE-Am) (peptide)
peptide: Ac-FKFEFKFE-NH2
notes: designed amphipathic octapeptide; also called double repeat of FKFE

Tests used:
[1] = comparison values for longer KFE peptides; ref [14], [37]; cited from earlier work
Excerpt: All the KFE5 peptide SAXS curves fit simple shape models of long polydisperse rods plus smaller globular components (Figure 5A). The characteristics of these rods, extracted from fitting to a Guinier‐plate model, are almost identical with an average rod or tape thickness estimated at 31.9(1) Å (Figure 5B). This is similar to our previously measured values for KFE8 and KFE12 [14, 37]. This thickness, which includes contributions from the solvent layer, matches the β‐sheet sandwich model. This appears to be a common feature of the KFE peptides that is not disrupted by the modification of the ...

[2] = Negative-stain TEM of self-assembled peptide fibrils (width, length, morphology); format: physicochemical; conditions: for fibril width: assembled in water, 10 µM on grid, n = 200 measurements from 30 fibrils; for self-assembly / fibril morphology (in words): in water, identical preparation conditions
Procedure: Peptide solutions (10 µM; diluted in UPW from fibrillated peptide solutions as stated above) were applied directly to 200‐mesh, carbon‐coated copper grids for 2 min and stained with 1% uranyl formate for 1 min. Excess stain and the peptide solution were blotted using filter paper, and grids were washed thrice with UPW. Darkfield images were acquired on a JEOL (Akishima, Japan) JEM‐2100F Field‐Emission STEM microscope at an accelerating voltage of 120 kV.
Individual fibers were selected for measurement, avoiding aggregates. The width of each fiber was measured using the line tool by drawing a line across the fiber's width at an angle approximately perpendicular (90°) to its orientation to ensure accuracy. Similar measurements were done to calculate the length of the fibrils. The start and end points of the line were determined based on the contrast between the fiber and the surrounding background. […]

[3] = Small-angle X-ray scattering (SAXS) of peptide assemblies; format: physicochemical; conditions: 4 mg/mL in deionized water (CN 2 mg/mL), 10°C, Debye‐Bueche fit 0.015–0.10 Å^−1
Procedure: SAXS data of the KFE5 X‐phenyl substituted peptide solutions were collected using a Rigaku (Woodlands, TX) BioSAXS‐1000 camera on an FRE^++ X‐ray generator with an ASC‐96 Automated Sample Changer held at 10°C. A matching buffer was collected for each sample. The detector was calibrated using a silver behenate powder sample, following the manufacturer's recommended procedure. The SAXS samples (KFE5 and its variants) were prepared by dissolving […] of lyophilized peptide in 400 µL of deionized water to produce a final concentration of 4 mg/mL. The samples were then vortexed, and precipitants were removed by centrifugation at […] for 5 min. Although the samples formed gels, these remained fluid under hydrostatic pressure, permitting pipetting by the ASC‐96 liquid handling system. The cyano variant of KFE5 was an exception. It remained a gel at 4 mg/mL and needed to be diluted to 2 mg/mL to be pipetted or flowed in the ASC‐96 liquid sample handling system. Processing was performed in SAXSLab (Rigaku) and SAXNS‐ES (https://xray.utmb.edu/SAXNS). Analyses were performed in Primus/GNOM [81], BIFT [82, 83], and gnuplot (http://www.gnuplot.info).

[4] = Gelation, rheology (G′, G″) and viscosity of peptide solutions; format: physicochemical; conditions: for Gel Formation: 5 mM peptide concentration, in deionized water; for viscosity (in words): 5 mM peptide solutions, shear rate 100 s^-1, n = 4
Procedure: An ARES 2000ex rotational rheometer (TA Instruments, New Castle, DE) was used to evaluate the viscosity and viscoelastic properties of the peptides. Peptides were freshly solubilized in deionized water at 5 mM and allowed to incubate for 10 min to allow for complete solubilization. Next, 170 µL of each peptide solution was pipetted directly onto the rheometer stage. A 20 mm parallel plate geometry was lowered to a gap of 200 µm. Storage modulus (G′) and loss modulus (G″) were measured as a function of strain amplitude of 0.05–50% at an angular frequency of 10 rad/s to determine the linear viscoelastic region. Next, G′ and G″ were measured as a function of angular frequency (1–10 rad/s) at a strain of 1%. […] Separately, a Hagen‐Poiseuille viscometer (microVISC, Rheosense, San Ramon, CA) was used at a shear rate of 1000 s^−1 to validate measured viscosity trends.

[5] = Thioflavin T (ThT) fluorescence assay of fibrils; format: physicochemical; conditions: 50 µM peptide, ThT 10 µM, ex 440 nm / em 485 nm, n = 4
Procedure: For ThT assays, 50 µM fibrillated peptide solutions (diluted in UPW from fibrillated peptide solutions as stated above) were mixed with 20 µM ThT solution, and fluorescence was monitored at 485 nm upon excitation at 440 nm in a 96‐well plate using a Synergy HT plate reader (Biotek, USA). The OVA‐conjugated peptide fibrils were used to assess long‐term stability over a 7‐day period.

[6] = tested on: mouse bone-marrow dendritic cells (DCs); assay: Cytokine and chemokine release from BMDC cultures treated with nanofibers; format: cell-based; conditions: BMDCs treated with peptide nanofibers 10 μM for 24 h, supernatant analysed
Procedure: The femurs and tibiae of mice of C57BL/6 mice were flushed, and single‐cell suspensions were prepared, following removal of red blood cells (RBCs) using lysis buffer (Invitrogen, USA). After washing twice using HBSS (Hanks balanced salt solution), cells were differentiated for 7–9 days in complete Roswell Park Memorial Institute (RPMI) 1640 media containing heat‐inactivated Fetal bovine serum (FBS) (10%), β‐mercaptoethanol (55 µM), sodium pyruvate (1 mM), 10 mM 4‐hydroxyethylpiperazine ethane sulfonic acid (HEPES), 1× MEM (Minimum Essential Medium) non‐essential amino acids, 20 ng/mL granulocyte‐macrophage colony‐stimulating factor (GM‐CSF), 5 ng/mL IL‐4 and 100 µg/mL Penicillin‐Streptomycin (pen‐strep) in 150 mm dish (25 mL/dish) in an incubator at standard conditions (37°C and 5% CO2). Cells were harvested using gentle washing with MEM media between days 7–9 for experiments.
[picture] Figure S16. Cytokines and chemokines production in mouse bone-marrow dendritic cells (DCs) treated with peptide nanofibers (10 μM) for 24 h.

[7] = biological target: the molecule itself; assay: negative-stain TEM; peptide solutions 10 µM, diluted in ultrapure water from fibrillated 1 mM stocks, on carbon-coated copper grids, 1% uranyl formate

| Molecule | fibril width [2] | self-assembly / fibril morphology (in words) [2] | Gel Formation [4] | viscosity (in words) [4] | binding result [7] | also measured |
| --- | --- | --- | --- | --- | --- | --- |
| CC(=O)N[C@@H](Cc1ccccc1)C(=O)N[C@@H](CCCCN)C(=O)N[C@@H](Cc1ccccc1)C(=O)N[C@@H](CCC(=O)O)C(=O)N[C@@H](Cc1ccccc1)C(=O)N[C@@H](CCCCN)C(=O)N[C@@H](Cc1ccccc1)C(=O)N[C@@H](CCC(=O)O)C(N)=O [KFE8, reference compound] | 8–10 nm | thin nanofibrils | – | – | – | gel inhomogeneity‐correlation length (ζ) [1]: 25 Å |
| Ac-FKFEF-NH2 [KFE5, Ac‐FKFEF‐Am] | 50–100 nm | broader tape‐like structures | No | highest viscosity among the non‐gelling derivatives | – | gel inhomogeneity‐correlation length (ζ) [3]: about 58 Å |
| Ac-YKYEY-NH2 [KFE5(OH)] | – | complete ablation | No | lowest viscosities | – | storage modulus G′, fold lower than parent peptide ([4]; 5 mM peptide, strain 1%, angular frequency 10 rad/s, n = 3): approximately 2.5 fold; ThT fluorescence intensity (in words) [5]: lowest and comparable to ThT alone; cytokine and chemokine release profile (in words) [6]: release of MIP‐1α and MIP‐1β without TNF‐α secretion |
| B1 | – | – | – | – | binds | – |
| B2 | – | – | – | – | binds | – |
